Results on two molecules are retold here after patent US20020002269A1, “ARTEMIN, A NEUROTROPHIC FACTOR” (priority 1998, published 2002).

The subject of test [1] is dorsal root ganglion (DRG) neurons. The experiment in a line: Survival of cultured dorsal root ganglion neurons. The test is classed as cell-based, rat. On the procedure:
(§1) Each GDNF ligand family member consisted of the human mature amino acid sequence and was produced by standard recombinant DNA methods. Recombinant GDNF, neurturin and persephin were obtained from Genentech while recombinant artemin was produced as described in Example 3.
(§2) The cultures were performed using standard methods described elsewhere (Kotzbauer et al., Neuron 12:763-773, 1994; Kotzbauer et al., Nature 384:467-470, 1996; Milbrandt et al., Neuron 20:245-253, 1998). In brief, for SCG neurons, after dissection and dissociation, neurons were plated on collagen-coated 24-well tissue culture plates and maintained in NGF-containing medium (AM50) for 5 days, after which they were either kept in AM50 or switched to medium containing neutralizing anti-NGF antibodies plus GDNF, neurturin, persephin, artemin, (50 ng/ml where not noted otherwise), or no growth factors. Cultures were maintained for 3 days, after which they were fixed in 4% paraformaldehyde and stained with toluidine blue, and surviving neurons were counted. For nodose ganglion and dorsal root ganglion neuron cultures, dissociated neurons were plated directly into NGF (for dorsal root ganglia), or BDNF (for nodose ganglia, 100 ng/ml) or one of the GDNF ligands in serum-containing medium (AM50 with anti-NGF antibodies), and cells surviving after 3 days in culture were counted as above. Trigeminal ganglia were dissected, dissociated, and plated directly into medium containing NGF or the indicated GDNF ligands, and the number of surviving cells was assessed after 3 days in vitro. For all culture systems, 2-3 independent experiments were performed.

Test [2] has as its system trigeminal ganglion (TG) neurons. The experiment in a line: Survival of cultured trigeminal ganglion neurons. The test is classed as cell-based, rat. Particulars: 50 ng/ml, FIG. 7C; for survival of TG sensory neurons: 3 days in vitro. As for the experimental part:
as §1, §2

The test system of test [3] is CHP134 neuroblastoma cell line. The experiment in a line: Responsiveness of a neuroblastoma cell line that does not express RET (CHP134). The test is classed as cell-based. As to conditions: data not shown.
Test [4] concerns the target T1, RET (Rattus norvegicus, UniProt G3V9H8).
T1 construct: endogenous in cells
The experiment in a line: Western blot of RET phosphorylation and MAP kinase activation in SCG neurons. As to conditions: 50 ng/ml for 20 minutes, FIG. 9A. In kind it is cell-based. As for the experimental part: In brief, SCG neurons were dissected from postnatal day 1 (P1) rats and maintained in NGF-containing medium for 5 days, after which they were deprived of NGF by switching to NGF-free medium in the presence of anti-NGF antibodies. After 2 hours without NGF, neurons were switched to medium containing NGF, GDNF or artemin at 50 ng/ml for 20 minutes. Cells were washed in cold PBS, and collected in immunoprecipitation buffer (1 mM EDTA/1 mM EGTA/0.2 mM NaVO3/1 mM Pefabloc/1 uM pepstatin A/10 ug/ml leupeptin/2 ug/ml aprotinin/1% Triton X-100/0.5% Nonidet P-40/150 mM NaCl in 10 mM Tris, pH 7.4). The lysates were incubated with 30 μl agarose-conjugated anti-phosphotyrosine antibodies (Calbiochem) at 4° C. for 1 hr. Beads were then washed three times with immunoprecipitation buffer, resuspended in SDS sample buffer, and boiled for 5 min. Samples were separated using SDS-PAGE, and transferred to nitrocellulose membranes. Membranes were blocked for 1 hr at 25° C. in TBS containing 5% dry milk, incubated overnight 4° C. with a 1:300 dilution of anti-Ret antibody (C-19; Santa Cruz), then washed (3× in TBS containing 0.1% Tween-20) and incubated in a 1:10,000 dilution of anti-rabbit antibodies conjugated to HRP (Jackson Immunoresearch). Membranes were washed 3×, incubated with SuperSignal ULTRA (Pierce) for 5 minutes, then exposed to film. For MAP kinase (MAPK) assays, a portion of the total lysate wars removed before immunoprecipitation, separated by SDS-PAGE, and immunoblotted using an anti-phospho-MAP-kinase antibody (New England Biolabs).

For test [5], the system named is NLF cells transformed with GFRα1. Kind of test: Ga14-Elk/Ga14-Luc reporter in NLF neuroblastoma cells transformed with GFRα1. As to conditions: factor for 24 hours, low-serum medium, FIG. 10B. In kind it is cell-based. On the procedure:
Thus, to directly test which receptor combinations can form functional receptors for artemin, expression plasmids for the individual GFRA coreceptors together with the Ga14-Elk/Ga14-Luc reporter system were transiently transformed into fibroblasts that stably express RET. […]
NLF neuroblastoma cells, which naturally express GFRα2/RET (Tansey et al., submitted), or the RET-3T3 cells were plated at 85,000 cells/well in 12-well plates, and cotransfected with the reporter plasmids Ga14-Luc and CMV-Ga14-Elk (250 ng/well and 50 ng/well, respectively), CMV-lacZ (50 ng/well) for transfection normalization, one of the CMV-GFRA expression plasmids (500 ng/well), and pBluescript (650 ng/well) as carrier for a total of 1.5 μg DNA/well using the Superfect reagent (Qiagen) according to the manufacturer's instructions. […] Measurement of luciferase and β-galactosidase activity was measured using a luminometer and performed as described (Svaren et al., EMBO J 17:6010-6019, 1998). The average luciferase activity of duplicate samples was normalized to β-galactosidase activity of the cotransformed lacZ reporter, and fold activation was calculated by dividing the normalized activity in factor-treated cells by that in the no treatment control.

The mark [6] stands for this setting: 50 ng/ml, 3 days in culture, FIG. 7A.

T1 sequence (G3V9H8 24-1115): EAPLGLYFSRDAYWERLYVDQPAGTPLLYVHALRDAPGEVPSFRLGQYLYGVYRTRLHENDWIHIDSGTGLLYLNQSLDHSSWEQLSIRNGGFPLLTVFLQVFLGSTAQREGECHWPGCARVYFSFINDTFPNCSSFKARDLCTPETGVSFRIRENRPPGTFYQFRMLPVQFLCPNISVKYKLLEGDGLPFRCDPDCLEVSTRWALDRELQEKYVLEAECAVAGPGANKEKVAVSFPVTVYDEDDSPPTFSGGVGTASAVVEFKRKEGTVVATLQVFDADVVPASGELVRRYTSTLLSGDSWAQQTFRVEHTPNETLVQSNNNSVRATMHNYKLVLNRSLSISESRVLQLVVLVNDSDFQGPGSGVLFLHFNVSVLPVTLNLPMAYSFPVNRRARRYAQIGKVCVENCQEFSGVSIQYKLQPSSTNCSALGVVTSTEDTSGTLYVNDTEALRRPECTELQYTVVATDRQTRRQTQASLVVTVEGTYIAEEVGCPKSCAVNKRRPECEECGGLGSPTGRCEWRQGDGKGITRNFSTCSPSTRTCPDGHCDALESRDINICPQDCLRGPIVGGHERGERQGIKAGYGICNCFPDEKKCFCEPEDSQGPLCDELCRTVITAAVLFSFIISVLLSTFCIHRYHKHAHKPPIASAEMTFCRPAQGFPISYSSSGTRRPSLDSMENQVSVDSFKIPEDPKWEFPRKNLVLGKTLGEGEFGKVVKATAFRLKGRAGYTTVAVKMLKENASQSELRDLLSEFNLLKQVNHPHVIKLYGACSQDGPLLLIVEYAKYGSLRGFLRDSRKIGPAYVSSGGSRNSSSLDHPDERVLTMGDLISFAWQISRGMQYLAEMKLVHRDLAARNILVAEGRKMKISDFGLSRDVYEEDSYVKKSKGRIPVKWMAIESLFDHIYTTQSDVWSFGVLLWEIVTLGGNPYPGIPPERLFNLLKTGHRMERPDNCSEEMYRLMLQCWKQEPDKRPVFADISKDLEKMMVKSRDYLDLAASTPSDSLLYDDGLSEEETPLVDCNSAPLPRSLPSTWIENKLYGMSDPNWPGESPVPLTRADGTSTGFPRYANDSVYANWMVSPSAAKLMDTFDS

With “artemin: recombinant mature human artemin (FIG. 3A, SEQ ID NO:3) with 8-histidine tag, produced in E. coli; GDNF family neurotrophic factor”, in test [1] (setting [6]), the “survival of DRG sensory neurons” value is recorded as “supported the survival of a subset of sensory neurons”. Further, the “number of DRG neurons supported compared with GDNF or neurturin” value in test [1] (50 ng/ml, FIG. 7A) is listed as “supported a larger number of neurons than GDNF or neurturin”. In test [1] (dose response, P1 rat DRG neurons, 3 days in culture, FIG. 7B), the “EC50 of survival promoting effect on DRG neurons” value fell in the range of 1 to 3 ng/mL. Moreover, the EC50 (in general, the midpoint of the concentration-response curve) in test [1] (dose response, P1 rat DRG neurons, molar figure, FIG. 7B, read-out: EC50 of survival promoting effect on DRG neurons) is approximately 0.1 nM. In test [2], the “survival of TG sensory neurons” value is recorded as “supported the survival of a subset of sensory neurons”, the “number of TG neurons supported compared with GDNF or neurturin” value is listed as “supported a larger number of neurons than GDNF or neurturin” and the “number of TG neurons supported compared with NGF” value is given as “a greater number (TG)”. Also, the “response of CHP134 cells” value in test [3] was “did not respond”. Moreover, in test [4], the “downstream signaling (activation of the MAP kinase pathway) in SCG neurons” value was “effective in eliciting downstream signaling” and the “tyrosine-phosphorylation of RET in SCG neurons” value is reported as “induced tyrosine-phosphorylation of RET”. For the same molecule, the “response of NLF cells transformed with GFRα1 (luciferase reporter)” value in test [5] was “became responsive to artemin”.

B1: GDNF: recombinant human mature GDNF obtained from Genentech (protein, UniProt P39905 78-211, looked up)
Glial cell line-derived …: SPDKQMAVLPRRERNRQAAAANPENSRGKGRRGQRGKNRGCVLTAIHLNVTDLGLGYETKEELIFRYCSGSCDAAETTYDKILKNLSRNRRLVSDKVGQACCRPIAFDDDLSFLDDNLVYHILRKHSAKRCGCI
For the molecule B1, the “survival of DRG sensory neurons” value in test [1] (setting [6]) was “supported the survival of a subset of sensory neurons”. In addition, the “survival of TG sensory neurons” value in test [2] is on record as “supported the survival of a subset of sensory neurons”. The “response of CHP134 cells” value in test [3] was “did not respond”. In test [4], the “tyrosine-phosphorylation of RET in SCG neurons” value is “induced tyrosine-phosphorylation of RET”. Moreover, the “response of NLF cells transformed with GFRα1 (luciferase reporter)” value in test [5] is recorded as “responded more intensely to GDNF”.
